In publication PMC10319850, “Crystal structure of [1,2,4] triazolo[4,3- b ]pyridazine derivatives as BRD4 bromodomain inhibitors and structure–activity relationship study” (Scientific Reports, 2023):
Where two headings read alike, the source gives them in different places.

What was measured:
BRD4 BD1 = BRD4 BD1 (Homo sapiens, UniProt O60885); test: AlphaScreen assay, BRD4 BD1 inhibition; assay type: binding; conditions: for inhibitory activity against BD1 (in words): measured range 0.0096 to 32 μM
Experimental: To find the hit molecules for BRD4 bromodomain inhibitor discovery, we performed an in vitro AlphaScreen assay with in-house chemical libraries.
The AlphaScreen assay was described previously and performed according to the manufacturer’s protocol (PerkinElmer, USA). The reaction buffer was 50 mM HEPES pH 7.4, 100 mM NaCl, 0.1% BSA, and 0.05% CHAPS.

BRD4 BD2 = BRD4 BD2 (Homo sapiens, UniProt O60885); test: AlphaScreen assay, BRD4 BD2 inhibition; conditions: for inhibitory activity for BD2 (in words): AlphaScreen
[1] = AlphaScreen, N = 3, standard deviations in parentheses, read-out: IC50 (BD1)
[2] = Supplementary Table S2, mean of three independent measurements, 8-point titration from 0.0096 to 32 μM, read-out: IC50 (μM) for BD1

inhibitory activity against BD1 (in words) (BRD4 BD1; AlphaScreen)	IC50 (BRD4 BD1; [2]) [µM]	Compound	other results
		Cc1nnc2ccc(NCCc3c[nH]c4ccccc34)nn12 [Compound 5]	IC50 (BRD4 BD1; [1]): 17.1 µM; IC50 (BRD4 BD2): 23.2 µM; inhibitory activity for BD2 (in words) (BRD4 BD2): have inhibitory activities for BD2
did not much improved the IC50 value		FC(F)(F)c1nnc2ccc(NCCc3c[nH]c4ccccc34)nn12 [Compound 6, N-[2-(1H-indol-3-yl)ethyl)-3-(trifluoromethyl)-[1,2,4]triazolo[4,3-b]pyridazin-6-amine]	IC50 (BRD4 BD1; [1]): 9.6 µM; IC50 (BRD4 BD2): 11.3 µM; inhibitory activity for BD2 (in words) (BRD4 BD2): have inhibitory activities for BD2
nearly same blocking efficacy	29 ± 5.7	Cc1nnc2ccc(NCCc3c[nH]c4ccc(F)cc34)nn12 [Compound 7, N-[2-(5-fluoro-1H-indol-3-yl)ethyl]-3-methyl-[1,2,4]triazolo[4,3-b]pyridazin-6-amine]	
nearly same blocking efficacy	25.7 ± 11.1	COc1ccc2[nH]cc(CCNc3ccc4nnc(C)n4n3)c2c1 [Compound 8, N-[2-(5-methoxy-1H-indol-3-yl)ethyl)-3-methyl-[1,2,4]triazolo[4,3-b]pyridazin-6-amine]	
no inhibition	> 32	Fc1ccc2[nH]c3c(c2c1)CCN(c1ccc2nnc(-c4ccccc4F)n2n1)C3 [Compound 11, 6-Fluoro-2-[3-(2-fluorophenyl)-[1,2,4]triazolo[4,3-b]pyridazin-6-yl]-1,3,4,9-tetrahydropyrido[3,4-b]indole]	
no blocking activities	> 32	Cc1nnc2ccc(N3CCCCC3)nn12 [Compound 13]	
no inhibitory efficacy	> 32	CC1CCN(c2ccc3nnc(CNS(=O)(=O)N(C)C)n3n2)CC1 [Compound 15]	
no inhibitory efficacy	> 32	Cc1nnc2ccc(N3CCOCC3)nn12 [Compound 16]	
no inhibitory efficacy	> 32	Cc1nnc2ccc(N3CCSCC3)nn12 [Compound 17]	
exhibited inhibitory activities	9.22 ± 1.6	Cc1nnc2ccc(N3CCC4(CCN(C(=O)OC(C)(C)C)CC4)CC3)nn12 [Compound 19]	
	> 32	Cc1nnc2ccc(N3CCC4(CC3)OCCO4)nn12 [Compound 20]	
exhibited inhibitory activities	6.21 ± 1.2	Cc1nnc2ccc(N3CCC4(CC3)CN(C(=O)OC(C)(C)C)C4)nn12 [Compound 21]	
	> 32	Cc1nnc2ccc(N3CCC4(CCNCC4)CC3)nn12 [Compound 22]	
	> 32	Cc1nnc2ccc(N3CCC4(CC3)CNC4)nn12 [Compound 23]	
	> 32	CC(C)c1nnc2ccc(N3CCC(C(=O)O)CC3)nn12 [Compound 24, 1-(3-Isopropyl-[1,2,4]triazolo[4,3-b]pyridazin-6-yl)piperidine-4-carboxylic acid]	
	> 32	CC(C)CCNC(=O)C1CCN(c2ccc3nnc(C(C)C)n3n2)CC1 [Compound 25, N-(3-methylbutyl)-1-[3-(propan-2-yl)[1,2,4]triazolo[4,3-b]pyridazin-6-yl]piperidine-4-carboxamide]	
	> 32	CC(C)c1nnc2ccc(N3CCC(C(=O)NC4CC4)CC3)nn12 [Compound 26, N-cyclopropyl-1-[3-(propan-2-yl)[1,2,4]triazolo[4,3-b]pyridazin-6-yl]piperidine-4-carboxamide]	
	> 32	CC(C)N1CCN(c2ccc3nnc(C4CCC4)n3n2)CC1 [Compound 27, 3-cyclobutyl-6-(4-isopropylpiperazino)[1,2,4]triazolo[4,3-b]pyridazine]	
	> 32	Cc1nnc2ccc(NCCC(=O)O)nn12 [Compound 28]	
	> 32	CCS(=O)(=O)NCCNc1ccc2nnc(C)n2n1 [Compound 29]	
	> 32	Cc1nnc2ccc(NCCO)nn12 [Compound 31]	
	> 32	Cc1nnc2ccc(NCCNC(=O)OC(C)(C)C)nn12 [Compound 32]	
showed inhibitory activity	7.51 ± 0.63	CCOC(=O)CCNc1ccc2nnc(C)n2n1 [Compound 33]	
	> 32	CCC(=O)NCCNc1ccc2nnc(C)n2n1 [Compound 34]	
	10.2 ± 1.29	Cc1nnc2ccc(NCc3ccccc3)nn12 [Compound 35]	
	8.91 ± 0.94	COc1ccc(CNc2ccc3nnc(C)n3n2)cc1 [Compound 37]	
	> 32	Cc1nnc2ccc(NCCC(=O)Nc3ccccc3)nn12 [Compound 38]	
	> 32	Cc1nnc2ccc(NCCNC(=O)c3ccccc3)nn12 [Compound 39]	
	> 32	Cc1nnc2ccc(NCCNC(=O)Nc3ccccc3)nn12 [Compound 40]	

Compound	inhibitory activity against BD1 (in words) (BRD4 BD1; AlphaScreen)	IC50 (BRD4 BD1; [2]) [µM]	other results
FC(F)(F)c1nnc2ccc(NCC(c3ccccc3)c3c[nH]c4ccccc34)nn12 (stereo not drawn) [Compound 9, N-[2-(1H-indol-3-yl)-2-phenylethyl]-3-(trifluoromethyl)-[1,2,4]triazolo[4,3-b]pyridazin-6-amine]	increased the IC50 value by only twofold compared to that of 6	23.4 ± 8.3	
Fc1cc2[nH]cc(CCNc3ccc4nnc(C5CC5)n4n3)c2cc1Cl [Compound 10, N-[2-(5-chloro-6-fluoro-1H-indol-3-yl)ethyl]-3-cyclopropyl-[1,2,4]triazolo[4,3-b]pyridazin-6-amine]	no inhibitory efficiency in the measured range	> 32	
CCc1nnc2ccc(NC(CO)Cc3c[nH]c4ccccc34)nn12 (stereo not drawn) [Compound 12, 2-[(3-ethyl-[1,2,4]triazolo[4,3-b]pyridazin-6-yl)amino]-3-(1H-indol-3-yl)propan-1-ol]	decreased blocking efficiency compared to that of 5		IC50 (BRD4 BD1; [1]): 25.2 µM; IC50 (BRD4 BD2): 36.5 µM; inhibitory activity for BD2 (in words) (BRD4 BD2): have inhibitory activities for BD2
Cc1nnc2ccc(N3C4CCC3COC4)nn12 [Compound 18]	no inhibitory efficacy	> 32	
